In patent US20150323548A1, “METHODS OF MONITORING THE MODULATION OF THE KINASE ACTIVITY OF FIBROBLAST GROWTH FACTOR RECEPTOR AND USES OF SAID METHODS” (Novartis AG, priority 2008, published 2015):
Marks after values point to notes of the source that are not given here.

Experiments:
[1] = system: NIH3T3/FGFR3^S249C subcutaneous tumors; test: Anti-tumor activity in subcutaneous NIH3T3/FGFR3^S249C tumor homograft model in nude mice; format: in vivo, mouse; details: p.o., qd, treatment day 8
Protocol: (§1) Animals. Experiments were performed in female HsdNpa: Athymic Nude-nu mice obtained from Laboratory Animal Services, Novartis Pharma AG, Basel, Switzerland. The animals were kept under OHC conditions in Makrolon type II cages (maximum of 10 animals/cage) with 12 hour dark, 12 hour light conditions (lights on: 6 AM, lights off: 6 PM). The animals were fed food and water ad libitum. Experiments were conducted under license number 1762 and license number 1763 approved by the Basel Cantonal Veterinary Office. All invasive procedures were performed under Forene anesthesia.
Establishment of NIH3T3/FGFR3^S249C tumor homograft model in nude mice. The NIH3T3/FGFR3^S249C model has been validated and characterized as a subcutaneous murine tumor model for the in vivo profiling of FGFR inhibitors. The parental NIH3T3 cell line was originally derived by immortalization of mouse embryonic fibroblasts. NIH3T3/FGFR3^S249C cells were generated by infection of parental NIH3T3 fibroblasts with a retroviral vector expressing FGFR3 with the activating mutation S249C. Pools of G418 resistant NIH3T3^S249C cells were established and characterized for FGFR3 expression and tyrosine phosphorylation. To generate homografts, 5×10^5 NIH3T3/FGFR3^S249C cells resuspended in PBS were injected subcutaneously in nude mice (0.2 ml/mouse).
Evaluation of anti-tumor activity. For the NIH3T3/FGFR3^S249C model, treatment was initiated when the average tumor volume reached approximately 100 mm^3. Tumor growth and body weights were monitored at regular intervals. The tumor sizes were measured manually with calipers. Tumor volume was estimated using the formula: (W×L×H×π/6), where width (W), length (L) and height (H) are the three largest diameters.
(§2) Statistical analysis. When applicable, results are presented as mean±SEM. Tumor and body weight data were analyzed by ANOVA with post hoc Dunnett's test for comparison of treatment versus control group. The post hoc Tukey test was used for intra-group comparison. The level of significance of body weight change within a group between the start and the end of the experiment was determined using a paired t-test. Statistical analysis was performed using GraphPad prism 4.02 (GraphPad Software).
(§3) As a measure of anti-tumor efficacy, the % T/C value is calculated at a certain number of days after treatment start according to: (mean change of tumor volume treated animals/mean change tumor volume control animals)×100. When applicable, % regressions are calculated according to the formula (mean change tumor volume/mean initial tumor volume)×100.
(§4) Compound formulation and animal treatment. […] Vehicle consisted of PEG300/DSW. The application volumes were 10 ml/kg.

[2] = system: RT112/lucl xenograft tumors; test: Anti-tumor activity in RT112/lucl subcutaneous xenograft model in nude mice; format: in vivo, mouse; details: 14 days; for Regr. (%) / Δ body weight (% ± SEM) / Δ body weight (mean g ± SEM) / Δ tumor volume (mean mm^3 ± SEM): p.o., qd
Protocol: as §1
Establishment of RT112/lucl tumor xenograft model in nude mice. The parental RT-112 human urinary bladder transitional cell carcinoma cell line, which expressed high levels of wild type FGFR3, was initially derived from a patient with untreated primary urinary bladder carcinoma (histological grade G2, stage not recorded) in 1973 (Marshall et al., 1977, Masters et al., 1986). The original stock vial of RT112 cells used in this study was obtained from DSMZ ACC #418.
The cells were cultured in MEM medium supplemented with 10% Fetal Calf Serum, 1% sodium pyruvate and 1% L-glutamine. Cell culture reagents were purchased from BioConcept (Allschwil, Switzerland).
The parental RT112 cell line was infected with the retroviral expression vector pLNCX2/lucl and pools of G418 resistant cells were established and characterized for luciferase expression. The CMV driven expression of luciferase allows the detection of tumors using Xenogen IVIS™ cameras after injection of D-luciferin.
For the RT112/lucl model, treatments were initiated when the mean tumor volumes were approx. 180 mm^3 and mice were treated daily for 14 days. Body weights and tumor volumes were recorded twice a week. Tumor volumes were measured with calipers and determined according to the formula length×diameter^2×π/6.
as §2, §3, §4

FGF23 [3] = test: FGF23 ELISA in plasma of nude mice bearing RT112/lucl xenografts; format: in vivo, mouse; details: 50 or 75 mg/kg/qd p.o., 14 days; two hours post-last dosing
Protocol: Data are presented as means±SD.
Tissue processing for ex vive analysis. At the end of the experiments, 2 hours after the last compound administrations, tumor samples and blood were collected.
Aliquots of 50 mg tumor powder were weighed, placed on ice and immediately resuspended at a ratio of 1:10 (w/v) in ice-chilled lysis buffer (50 mM Tris pH 7.5, 150 mM NaCl, 1 mM EGTA, 5 mM EDTA, 1% Triton, 2 mM NaVanadate, 1 mM PMSF and protease inhibitors cocktail Roche #11873580001). Lysis was allowed to proceed for 30 min on ice, lysates were clarified by centrifugation at 12000×g for 15 min and protein concentration was determined using DC protein assay reagents (Bio Rad #500-0116) and a BSA standard. Blood was collected from the vena cava with a 23 gauge needle into a 1 ml syringe containing 70 μl of a 1000 IU/ml heparin solution. Blood was then stored on ice for 30 min until centrifugation (10,000 g, 5 min) and then the plasma was collected.
FGF23 ELISA assay. […] Briefly, two specific murine monoclonal antibodies that bind to full-length FGF-23 are used: the first antibody is immobilized onto the microtiter plate well for capture and the second antibody is cojugated to HRP (horseradish peroxidase) for detection. In a first reaction, plasma or serum samples are added onto microtiter wells coated with the anti-FGF23 antibody to allow binding. […]

[4] = Rat mechanistic study: histopathology and tolerability; format: in vivo
FGF23 [5] = test: FGF23 ELISA in plasma of dogs; format: in vivo, dog; details: plasma 1 hour after last administration
FGF23 [6] = test: FGF23 ELISA in serum of wistar rats; format: in vivo, rat; details: 24 h post administration, p<0.01
Protocol: Data are presented as means of n=6, ±SD.
Animals. Experiments were performed in female wistar rats furth WF/Ico
The application volumes were 5 ml/kg.
Blood samples were drawn sublingually at 24 h post-compound administration. Plasma, as well as serum samples were prepared from each blood sample.

CCN1CCN(c2ccc(Nc3cc(N(C)C(=O)Nc4c(Cl)c(OC)cc(OC)c4Cl)ncn3)cc2)CC1 [COMPOUND A, 3-(2,6-Dichloro-3,5-dimethoxy-phenyl)-1-{6-[4-(4-ethyl-perpazin-1-yl)-phenylamino]-pyrimidin-4-yl}-1-methyl urea]
T/C (%) ([1]; 10 mg/kg): 34%
Δ body weight (% ± SEM) ([1]; 10 mg/kg): 18.0 ± 3.2%
Δ body weight (mean g ± SEM) ([1]; 10 mg/kg): 4.2 ± 0.7 g
Δ tumor volume (mean mm^3 ± SEM) ([1]; 10 mg/kg): 1320 ± 245* mm^3
T/C (%) ([1]; 30 mg/kg): 4%
Δ body weight (% ± SEM) ([1]; 30 mg/kg): 7.0 ± 3.1 %
Δ body weight (mean g ± SEM) ([1]; 30 mg/kg): 1.6 ± 0.7 g
Δ tumor volume (mean mm^3 ± SEM) ([1]; 30 mg/kg): 156 ± 56* mm^3
Regr. (%) ([1]; 50 mg/kg): 40%
Δ body weight (% ± SEM) ([1]; 50 mg/kg): 4.6 ± 2.2 %
Δ body weight (mean g ± SEM) ([1]; 50 mg/kg): 1.1 ± 0.5 g
Δ tumor volume (mean mm^3 ± SEM) ([1]; 50 mg/kg): −43 ± 28* mm^3
Regr. (%) ([2]; 50 mg/kg): 67%
Δ body weight (% ± SEM) ([2]; 50 mg/kg): 10.8 ± 4.1%
Δ body weight (mean g ± SEM) ([2]; 50 mg/kg): 2.6 ± 1.0 g
Δ tumor volume (mean mm^3 ± SEM) ([2]; 50 mg/kg): −120 ± 12* mm^3
Regr. (%) ([2]; 75 mg/kg): 74%
Δ body weight (% ± SEM) ([2]; 75 mg/kg): −4.0 ± 4.5%
Δ body weight (mean g ± SEM) ([2]; 75 mg/kg): -1.1 ± 1.1 g
Δ tumor volume (mean mm^3 ± SEM) ([2]; 75 mg/kg): −133 ± 13* mm^3
Tolerability of treatments ([2]; 50 and 75 mg/kg per day orally): well tolerated
Plasma levels of FGF23 vs vehicle-treated group (FGF23 [3]): increased plasma levels of FGF23
Bone remodeling events (histopathology) ([4]; 10 mg/kg/day 15 days + 4 days recovery, 20 mg/kg/day 3 days + 4 days recovery, 20 mg/kg/day 6 days): Signs of bone remodeling events were noted
Soft tissue/vascular mineralization (histopathology) ([4]; 10 mg/kg/qd groups): not observed
Body weight effect leading to premature termination ([4]; 20 mg/kg once daily p.o., after the 6th administration): severe body weight loss
Soft tissue/vascular mineralization (histopathology) ([4]; 20 mg/kg/day for 3 days after 4 recovery days, and after 6 days of treatment): Soft tissue/vascular mineralization was detected
Growth plate thickening (histopathology) ([4]; male rats, 10 and 20 mg/kg/day p.o., after three days of treatment): Growth plate thickening was detected
FGF-23 cont. (FGF23 [5]; group 2, 3 → 100 mg/kg/day p.o., animal # 453 (male)): 262.5 pg/mL
FGF-23 cont. (FGF23 [5]; group 2, 3 → 100 mg/kg/day p.o., animal # 454 (female)): 211.3 pg/mL
FGF-23 cont. (FGF23 [5]; group 3, 30 mg/kg/day p.o., 15 days, animal # 455 (male)): 534.3 pg/mL
FGF-23 cont. (FGF23 [5]; group 3, 30 mg/kg/day p.o., 15 days, animal # 456 (female)): 322.7 pg/mL
FGF-23 cont. (FGF23 [5]; group 4, 300 mg/kg/day p.o., 8 days, animal # 457 (male)): 824.6 pg/mL
FGF-23 cont. (FGF23 [5]; group 4, 300 mg/kg/day p.o., 8 days, animal # 458 (female)): 614.8 pg/mL
serum levels of FGF23 vs vehicle-treated group (FGF23 [6]; single oral 10 mg/kg): statistically significant increased in serum levels of FGF23

CCN(CC)CCCCNc1ncc2cc(-c3cc(OC)cc(OC)c3)c(NC(=O)NC(C)(C)C)nc2n1 [PD173074]
serum levels of FGF23 vs vehicle-treated group (FGF23 [6]; single oral 50 mg/kg): statistically significant increased in serum levels of FGF23
